Assay results: ChEMBL document CHEMBL1201862, “PubChem BioAssay data set” (2004)
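Results reflect a 48-hour exposure of cells in 96-well plates to compound at five concentrations. At the GI50, growth is halved.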 Calls of active or inactive are those of the source. No stated cut-off is given here; in the data, active = GI50 up to about 1.1 µM and inactive = higher.

Experiments:
Assay in all cases: NCI-60 cell line screen, 48 h
SK-MEL-28 = test system: SK-MEL-28
SF-295 = test system: SF-295
SK-MEL-5 = test system: SK-MEL-5
SNB-19 = test system: SNB-19
U-251 = test system: U-251
M14 = test system: M14
DU-145 = test system: DU-145
786-0 = test system: 786-0
OVCAR-5 = test system: OVCAR-5
CCRF-CEM = test system: CCRF-CEM
SW-620 = test system: SW-620
OVCAR-4 = test system: OVCAR-4
SK-MEL-2 = test system: SK-MEL-2
OVCAR-8 = test system: OVCAR-8
NCI-H226 = test system: NCI-H226
CAKI-1 = test system: CAKI-1
KM12 = test system: KM12
UACC-257 = test system: UACC-257
SF-539 = test system: SF-539
HCC 2998 = test system: HCC 2998

| SMILES | GI50 (SK-MEL-28) | GI50 (SF-295) | GI50 (SK-MEL-5) | GI50 (SNB-19) | GI50 (U-251) | GI50 (M14) | GI50 (DU-145) | GI50 (786-0) | GI50 (OVCAR-5) | GI50 (CCRF-CEM) | GI50 (SW-620) | GI50 (OVCAR-4) | GI50 (SK-MEL-2) | GI50 (OVCAR-8) | GI50 (NCI-H226) | GI50 (CAKI-1) | GI50 (KM12) | GI50 (UACC-257) | GI50 (SF-539) | GI50 (HCC 2998) |
| --- | --- | --- | --- | --- | --- | --- | --- | --- | --- | --- | --- | --- | --- | --- | --- | --- | --- | --- | --- | --- |
| CCn1c2c(c3ccccc3c1=O)C(=O)c1ccccc1-2 | > 100 µM (inactive) | > 100 µM (inactive) | 50.1 µM (inactive) | > 100 µM (inactive) | > 100 µM (inactive) | > 100 µM (inactive) | > 100 µM (inactive) | > 100 µM (inactive) | > 100 µM (inactive) | 22 µM (inactive) | > 100 µM (inactive) | > 100 µM (inactive) | > 100 µM (inactive) | > 100 µM (inactive) | > 100 µM (inactive) | > 100 µM (inactive) | > 100 µM (inactive) | > 100 µM (inactive) | 19.1 µM (inactive) | – |
| NC(=O)NNc1nc2ccccc2c(=O)n1NC(=O)C(=O)Nc1ccc(Cl)cc1Cl | > 100 µM (inactive) | > 100 µM (inactive) | > 100 µM (inactive) | 81.1 µM (inactive) | > 100 µM (inactive) | > 100 µM (inactive) | – | > 100 µM (inactive) | > 100 µM (inactive) | > 100 µM (inactive) | > 100 µM (inactive) | > 100 µM (inactive) | > 100 µM (inactive) | > 100 µM (inactive) | > 100 µM (inactive) | > 100 µM (inactive) | > 100 µM (inactive) | > 100 µM (inactive) | > 100 µM (inactive) | > 100 µM (inactive) |
| S=C(Nc1cccc(Cl)c1)Nc1ccccn1 | > 100 µM (inactive) | > 100 µM (inactive) | > 100 µM (inactive) | > 100 µM (inactive) | > 100 µM (inactive) | > 100 µM (inactive) | > 100 µM (inactive) | > 100 µM (inactive) | > 100 µM (inactive) | > 100 µM (inactive) | > 100 µM (inactive) | > 100 µM (inactive) | > 100 µM (inactive) | > 100 µM (inactive) | > 100 µM (inactive) | > 100 µM (inactive) | 13.5 µM (inactive) | > 100 µM (inactive) | > 100 µM (inactive) | – |
| C=CCC1(CN(C)C)CC/C(=C\c2cc(OC)c(OC)c(OC)c2)C1=O (stereo not drawn) | 34.2 µM (inactive) | 38.1 µM (inactive) | 20 µM (inactive) | 34 µM (inactive) | 23 µM (inactive) | 19.4 µM (inactive) | – | 19.4 µM (inactive) | 51.9 µM (inactive) | 23.3 µM (inactive) | 18.7 µM (inactive) | 22.2 µM (inactive) | 42.8 µM (inactive) | 22.8 µM (inactive) | 52.4 µM (inactive) | 19.4 µM (inactive) | 17.4 µM (inactive) | 27.7 µM (inactive) | 18.7 µM (inactive) | 18.1 µM (inactive) |
| N#CC(C#N)=Cc1ccc(CP(=O)(O)O)cc1 | > 100 µM (inactive) | > 100 µM (inactive) | > 100 µM (inactive) | > 100 µM (inactive) | > 100 µM (inactive) | > 100 µM (inactive) | – | > 100 µM (inactive) | > 100 µM (inactive) | 44.2 µM (inactive) | > 100 µM (inactive) | > 100 µM (inactive) | > 100 µM (inactive) | > 100 µM (inactive) | > 100 µM (inactive) | > 100 µM (inactive) | > 100 µM (inactive) | > 100 µM (inactive) | > 100 µM (inactive) | > 100 µM (inactive) |
| O=CN/C=C\c1cc(O)ccc1O | 42.2 µM (inactive) | 28.4 µM (inactive) | 7.59 µM (inactive) | > 100 µM (inactive) | 32 µM (inactive) | 13.5 µM (inactive) | – | 15.8 µM (inactive) | > 100 µM (inactive) | 5.11 µM (inactive) | 12.6 µM (inactive) | 12.7 µM (inactive) | > 48.9 µM (inactive) | 15.6 µM (inactive) | 14.5 µM (inactive) | 12.7 µM (inactive) | > 22.5 µM (inactive) | 11.7 µM (inactive) | 10.7 µM (inactive) | > 100 µM (inactive) |
| O=C1CSC(C(/N=N/c2ccccc2)=C2Nc3ccccc3N2)=N1 | 29.6 µM (inactive) | 22.1 µM (inactive) | 39.8 µM (inactive) | 31.9 µM (inactive) | 97.9 µM (inactive) | 70.3 µM (inactive) | – | 25.8 µM (inactive) | > 100 µM (inactive) | 5.79 µM (inactive) | 93.5 µM (inactive) | > 100 µM (inactive) | 53.3 µM (inactive) | 39.1 µM (inactive) | 13.6 µM (inactive) | 24.9 µM (inactive) | 66.1 µM (inactive) | 24.4 µM (inactive) | 26.4 µM (inactive) | > 100 µM (inactive) |
| CC1[C@@]2(CCC(C)(C)O2)O[C@@H]2C=C3C4CCC5Cc6nc7c(nc6C[C@@]5(C)C4C[C@H](O)[C@@]3(C)[C@]12O)CC1CCC2C3=C[C@H]4O[C@@]5(O[C@@](C)(CO)C[C@@H]5O)C(C)[C@@]4(O)[C@]3(C)[C@@H](O)CC2[C@]1(C)C7 (stereo partly drawn) | 0.0553 µM (active) | 0.00807 µM (active) | 0.0951 µM (active) | 0.224 µM (active) | 0.0266 µM (active) | 0.04 µM (active) | – | 0.0168 µM (active) | 0.142 µM (active) | 0.0199 µM (active) | 0.064 µM (active) | 0.723 µM (active) | 0.0783 µM (active) | 0.753 µM (active) | 0.0428 µM (active) | 0.111 µM (active) | 0.109 µM (active) | 0.138 µM (active) | 0.00847 µM (active) | 0.624 µM (active) |
| O=C(O)CNc1ccc(C(=O)O)cc1 | > 100 µM (inactive) | > 100 µM (inactive) | > 100 µM (inactive) | > 100 µM (inactive) | > 100 µM (inactive) | > 100 µM (inactive) | > 100 µM (inactive) | > 100 µM (inactive) | > 100 µM (inactive) | > 100 µM (inactive) | > 100 µM (inactive) | > 100 µM (inactive) | > 100 µM (inactive) | > 100 µM (inactive) | > 100 µM (inactive) | > 100 µM (inactive) | > 100 µM (inactive) | > 100 µM (inactive) | > 100 µM (inactive) | – |
| COc1nc(C#CC2(O)CCCCC2)nc(OC)n1 | 13.9 µM (inactive) | 18 µM (inactive) | 7.43 µM (inactive) | 38.7 µM (inactive) | 12.4 µM (inactive) | 8.65 µM (inactive) | 6.79 µM (inactive) | 22.9 µM (inactive) | 12.7 µM (inactive) | 12.3 µM (inactive) | 8.91 µM (inactive) | 1.87 µM (inactive) | 14 µM (inactive) | 13 µM (inactive) | – | 4.19 µM (inactive) | 15.8 µM (inactive) | 14.6 µM (inactive) | 9.16 µM (inactive) | – |
| CC(C)C1=Cc2ccc3c(c2C(=O)C1=O)CCCC3(C)C [MILTIRONE] | 5.62 µM (inactive) | 17.2 µM (inactive) | 12.3 µM (inactive) | 17.2 µM (inactive) | 14.2 µM (inactive) | 5.46 µM (inactive) | – | 5.65 µM (inactive) | 19.4 µM (inactive) | 1.17 µM (inactive) | 3.15 µM (inactive) | 1.77 µM (inactive) | 17 µM (inactive) | 4.29 µM (inactive) | 20.5 µM (inactive) | 2.47 µM (inactive) | 16.1 µM (inactive) | 3.08 µM (inactive) | 5.33 µM (inactive) | 18.4 µM (inactive) |
